These results are taken from US20220193253A1, “SLOW-RELEASE CYTOKINE CONJUGATES” (ProLynx LLC, priority 2019, published 2022).

One data set addresses T1, IL-2Rβγ (Homo sapiens, UniProt P14784+P31785).
T1 construct: host or cells: U2OS
T1 sequence (P14784 27-551): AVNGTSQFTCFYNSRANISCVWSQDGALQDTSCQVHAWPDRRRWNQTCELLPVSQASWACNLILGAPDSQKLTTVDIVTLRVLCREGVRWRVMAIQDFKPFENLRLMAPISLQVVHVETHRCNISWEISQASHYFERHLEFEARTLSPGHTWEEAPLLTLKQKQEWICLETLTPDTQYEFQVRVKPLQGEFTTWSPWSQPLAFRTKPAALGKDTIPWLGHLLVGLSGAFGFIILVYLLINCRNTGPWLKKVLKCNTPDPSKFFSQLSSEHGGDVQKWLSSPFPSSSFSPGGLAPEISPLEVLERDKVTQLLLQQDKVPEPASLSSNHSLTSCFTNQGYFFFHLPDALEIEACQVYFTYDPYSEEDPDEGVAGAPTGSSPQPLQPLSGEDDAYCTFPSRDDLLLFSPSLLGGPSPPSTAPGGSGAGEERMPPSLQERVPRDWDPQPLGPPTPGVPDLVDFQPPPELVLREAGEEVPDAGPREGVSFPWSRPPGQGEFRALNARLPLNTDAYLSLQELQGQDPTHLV
T1 sequence (P31785 23-369): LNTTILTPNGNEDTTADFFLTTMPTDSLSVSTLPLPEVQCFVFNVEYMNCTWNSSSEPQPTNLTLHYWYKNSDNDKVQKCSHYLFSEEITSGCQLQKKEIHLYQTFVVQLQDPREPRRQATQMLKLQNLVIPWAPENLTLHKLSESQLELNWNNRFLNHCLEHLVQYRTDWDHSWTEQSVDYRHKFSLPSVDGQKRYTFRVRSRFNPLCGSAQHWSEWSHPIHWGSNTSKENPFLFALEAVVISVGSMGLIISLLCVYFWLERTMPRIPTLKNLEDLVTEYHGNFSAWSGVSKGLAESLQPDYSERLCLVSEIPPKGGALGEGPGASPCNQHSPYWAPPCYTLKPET
The data set is described as follows: U2OS cell-based assay kit for IL-2Rβγ binding (DiscoverX). Conditions: mutein vs WT IL-2. As to the method:
(§1) IL-2[N88R,C125S] was prepared by expression in HEK cells. Cell-based receptor binding assays were performed to evaluate the activity of the mutein against the high-affinity αβγ trimeric (Treg) and intermediate affinity βγ dimeric (Teff) forms of the IL-2 receptor (Table 1). The mutein binds only 6-fold poorer than IL-2 to the IL-2Rαβγ but about 900-fold poorer to the IL-2Rβγ.
A U2OS cell-based assay kit for IL-2Rβγ binding was performed according the manufacturer's instructions (DiscoverX, Part #93-0998E3CP5). Cells were plated at 50 μL (˜5,000 cells/well) in 96 well assay plates and grown for 48 hours at 37° C., 5% CO2. Cells were then treated for 6 hours at 37° C., 5% CO2 with dilution series of either WT IL-2, IL-2 N88R, C125S, or IL-2 N88R, C125S released from microspheres at pH 9.4. Eleven WT IL-2 concentrations were assayed between 17 pg/mL-1 μg/mL (1 pM-61 nM). Eleven IL-2 N88R, C125S concentrations were assayed between 1.7 ng/mL-100 μg/mL ([…]-6 μM). Eleven released remnant IL-2 N88R, C125S concentrations were assayed between 170 pg/mL-10 μg/mL ([…]-600 nM). Treated cells were incubated with chemiluminescent substrate for 1 hour at ambient temperature in the dark, then luminescence was read with a Spectramax i3 plate reader with 250 ms integration time.

Data set [1] deals with T-cells in the spleen and islets. Description: Pharmacodynamics of IL2 and IL2[N88R,C125S] in NOD mice (flow cytometry of spleen and islets). The data set is classed as in vivo. The conditions noted are these: daily injections 25,000 units for five days. Here is the method:
Mice were sacrificed 2 hours after the last injection and the spleen and pancreas were harvested for flow cytometry analysis to measure changes in total number of T-cells and their differentiation in the spleen and islets.
On the technique in general: Flow cytometry measures light scatter and fluorescence of single cells or particles in a stream.

The next data set concerns the target T2, IL-2Rαβγ (Homo sapiens, UniProt P01589+P14784+P31785).
T2 construct: host or cells: U2OS
T2 sequence (P01589 22-272): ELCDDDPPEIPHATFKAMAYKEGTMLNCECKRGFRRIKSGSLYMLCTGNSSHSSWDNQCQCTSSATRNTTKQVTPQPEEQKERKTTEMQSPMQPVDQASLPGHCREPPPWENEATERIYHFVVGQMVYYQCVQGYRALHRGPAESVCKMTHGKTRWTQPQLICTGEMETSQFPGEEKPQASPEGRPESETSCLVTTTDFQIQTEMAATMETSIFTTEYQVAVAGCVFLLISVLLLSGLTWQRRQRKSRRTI
T2 sequence (P14784 27-551): T1 sequence (P14784 27-551)
T2 sequence (P31785 23-369): T1 sequence (P31785 23-369)
Description: U2OS cell-based assay kit for IL-2Rαβγ binding (DiscoverX). Here is the method:
as §1
A U2OS cell-based assay kit for IL-2Rαβγ binding was performed according the manufacturer's instructions (DiscoverX, Part #93-1003E3CP0). Cells were plated at 100 μL (˜10,000 cells/well) in 96 well assay plates and grown for 24 hours at 37° C., 5% CO2. Cells were then treated for 6 hours at 37° C., 5% CO2 with dilution series of either WT IL-2, IL-2 N88R, C125S, or IL-2 N88R, C125S released from microspheres at pH 9.4. Eleven WT IL-2 concentrations were assayed between 2 pg/mL-100 ng/mL (0.1 pM-6 nM). Eleven IL-2 N88R, C125S and released IL-2 N88R, C125S concentrations were assayed between 200 pg/mL-10 μg/mL ([…]-600 nM). Treated cells were incubated with chemiluminescent substrate for 1 hour at ambient temperature in the dark, then luminescence was read with a Spectramax i3 plate reader with 250 ms integration time.

Data set [2] concerns CD8+ memory T cells and NK cells in PBMCs. The data set is described as follows: Pharmacodynamics of [aminopropyl]-RLI released from microsphere conjugate. The data set is classed as in vivo, C57Black mice. Here is the method: The pharmacodynamics of the MS-RLI conjugate (34 μg, 1.5 nmol) was compared to that of empty MSs, and free RLI (2.5 μg, QDx4) in C57Black mice (n=5/group). Blood draws were taken over 13 days and the PBMCs surface stained using general laboratory procedures. Fixation and intracellular staining followed protocols from the eBioscience Foxp3/Transcription Factor Staining Buffer Set (ThermoFisher Scientific). Commercial antibodies used were against NK1.1, CD3, CD8, CD19, CD44 and Ki-67 expressing cells. Stained single cell suspension were analyzed using a LSRII flow cytometer (BD Biosciences) and analyzed using FlowJo cytometry analysis software (TreeStar, Ashland, Oreg.). Cell populations of particular interest were CD8+ memory T cells (CD44^hiCD8+), natural killer (CD3-NK1.1+) cells, proliferating CD8+ memory T cells (CD44^hiCD8+Ki-67+), and proliferating natural killer (CD3-NK1.1+Ki-67+) cells.

The conditions of data set [3]: in vivo; cited from earlier work.

Take “IL-2 N88R, C125S: IL-2 mutein, SEQ ID No: 3, prepared by expression in HEK cells”: in the data set with IL-2Rβγ, the “Fold-change of βγ EC50 vs WT IL-2 (fold poorer binding)” value is on record as “about 900 fold”. In data set [1], the “effect on CD4+ and CD8+ effector/memory T-cells in the spleen” value is on record as “little to no effect”; the “effect on the T-cells in the islets compared to PBS vehicle” value was “little to no effect”. The “Fold-change βγ EC50 vs αβγ EC50 (selectivity for IL-2Rαβγ vs IL-2Rβγ)” value in the data set with IL-2Rαβγ is reported as “over 3,000 fold”.
As for “RLI: receptor-linked interleukin: fusion protein comprising IL-15 and the sushi-domain of the receptor α-subunit, SEQ ID No: 16”, the “day of return of CD44hiCD8+ T cells to baseline levels” value in data set [2] (2.5 μg QDx4) is at most 7 days. In data set [2] (MS-RLI 34 μg single, free RLI 2.5 μg QDx4), the “fold increase in the percentage of NK cells in the PBMCs” value is recorded as about 4 fold. Further, in data set [2] (MS-RLI 34 μg single, native RLI 2.5 μg QDx4), the “time post treatment at which increase in CD44hiCD8+ T cells was noticeable” value came to 5 days. Moreover, the “half-life of free RLI” value in data set [3] was 3 h.
